Laboratory results as given in patent US6469061B1, “Jasmonate pharmaceutical composition for treatment of cancer” (priority 2001, dated 2002).
Several values for one entry are separate records, joined by “and”; a condition that tells them apart may be missing. Identical values can stand only once.

What was measured:
[1] = system: Caspase-3 activity in Molt-4 cells; assay: Caspase-3 (CPP32) protease assay in treated Molt-4 cells; assay type: cell-based, human; settings: for Caspase-3 activity: all concentrations and times (2, 4, 14 hours), P<0.05
Procedure: Elevated levels of Caspase-3 are a specific marker of the apoptosis process (Porter and Janicke, Cell Death Differ., 6, 99-104, 1999). In order to definitively determine that the cause of cell death was apoptosis, the level of Caspase-3 activity was measured in cells after treatment with JA and MJ. […] Briefly, 2×10^6 cells were lysed and resuspended in 100 μL of reaction buffer containing a fluorogenic Caspase-3 (CPP32) substrate Ac-DEVD-AMC. Reactions were incubated at 37° C. for 2 hours and samples were assayed at excitation wavelength of 360 nm and emission wavelength of 460 nm, in the FL600 Microplate Fluorescence Reader (Bio-Tek Instruments, Winooski, Vt., USA).

[2] = system: SK-28 human melanoma cells; assay: CellTiter 96 Aqueous Non-Radioactive Cell Proliferation Assay (MTS cytotoxicity), SK-28; assay type: cell-based; settings: SK28 cells, 0.5-3 mM tested, 24 hours
Procedure: (§1) All cell lines were purchased from ATCC (Rockville, Md.). […] JA and MJ were dissolved in ethanol.

[3] = system: MCF7 cells; assay: Trypan blue exclusion (cell death versus suppression of proliferation), MCF7; assay type: cell-based, human
Excerpt: (§2) Since the same number of cells was aliquoted into each well initially, decreased optical density as measured in wells containing treated cells (above) reflects cellular death and/or decrease in the rate of proliferation. To distinguish between these two possibilities we employed an additional cytotoxicity assay which detects cell death by lack of trypan blue exclusion.

[4] = system: normal lymphocytes from peripheral blood of healthy donors; assay: CellTiter 96 cytotoxicity on normal lymphocytes stimulated by TPA/PHA; assay type: cell-based, human; settings: 1 mM or 3 mM, 24 hours
Excerpt: Normal lymphocytes were separated from peripheral blood, as follows: Mononuclear cells (MNC) from venous blood of healthy donors were collected by Ficoll-Hypaque (Phamacia Fine Chemicals, Uppsala, Sweden) density gradient centrifugation. The resultant mononuclear cell preparation was allowed to adhere to plastic dishes to remove contaminant macrophages. The non-adherent peripheral blood lymphocytes were selected for use.

[5] = system: SK28 cells; assay: Trypan blue exclusion (cell death versus suppression of proliferation), SK28; assay type: cell-based, human
Excerpt: as §2

[6] = system: Molt-4 cells; assay: Fluorescence microscopy (DAPI) of nuclear morphology in Molt-4 cells; assay type: cell-based, human
Procedure: To confirm this fact, Molt-4 cells were treated with JA (2 mM) and MJ (0.5 mM) for 14 hours, and analyzed by fluorescence microscopy in order to detect essential morphological characteristics of apoptosis such as condensation and fragmentation of chromatin.
Referring to FIG. 3, fluorescence microscopy pictures are shown depicting changes in cellular morphology within the nuclei of Molt-4 cells, after treatment with plant stress hormones JA or MJ. 5×10^5 cells/sample were harvested, then fixated by addition of a solution of phosphate-buffered saline (PBS) containing [3% paraformaldehyde and 0.1% Triton X-100], for one hour. Cells were stained for 10 minutes with DAPI (1 μg/ml). Nuclei were analyzed by fluorescence microscopy, (using a fluorescence microscope model. A×70 TRF, made by Olympus Optical, Japan) at a magnification of 1:400. Characteristic apoptotic nuclei are marked with arrows.

[7] = system: Molt-4 cells; assay: Trypan blue exclusion (cell death versus suppression of proliferation), Molt-4; assay type: cell-based, human
Excerpt: as §2

[8] = system: Molt-4 human T lymphoblastic leukemia cell line; assay: CellTiter 96 Aqueous Non-Radioactive Cell Proliferation Assay (MTS cytotoxicity), Molt-4; settings: Molt-4 cells, 24 hours
Procedure: All cell lines were purchased from ATCC (Rockville, Md.). All reagents were purchased from Sigma Chemicals (St. Louis, Mo.) unless otherwise stated. JA and MJ were dissolved in ethanol.
LNCaP, MCF7 and SK-28 cells (at 4×10^3/well) and Molt-4 cells (at 1.5×10^4/well) were seeded in 96-well plates and allowed to adhere overnight. Plant stress hormone at increasing concentrations was added as indicated below, and toxicity was measured after 24 hours using the CellTiter 96 Aqueous Non-Radioactive Cell Proliferation Assay (Promega, Madison, Wis.); an assay in which viable cells produce a colored product (for details on the protocol of this assay, see below). This assay is quantitative, as the amount of color produced is read using an ELISA reader.
Each cell line was incubated with each of these hormones at a concentration ranging from 0.5-3 mM for 24 hours, after which cytotoxicity was measured. The statistical significance of the results was determined (where appropriate) by two-tailed student's t-test, n=3.
This allowed for development of a color reaction in which dehydrogenases reduce the MTS in metabolically active cells. Since the cells were not washed before the addition of MTS, there were no potentially loosely adherent or non-adherent cells that could have been problematic. Soluble MTS formazan product was measured at a wavelength of 490 nm using a CERES 900 HDI ELISA reader (Bio-Tek Instruments, Inc, Highland Park, Vt.). Optical density is directly proportional to the number of living cells in culture. Cytotoxicity (%) was calculated in the following way: [(OD of control cells−OD of drug-treated cells)/OD of control cells]×100.
Normal lymphocytes and Molt-4 cells were seeded (at 1.5×10^4/well) in 96-well plates.
Jasmonates or salicylic acid were added at a concentration of 1 mM or 3 mM, and cells were incubated for 24 hours. Optical density representing viable cells was determined by the CellTiter 96 Aqueous Non-Radioactive Cell Proliferation Assay.

[9] = system: MCF7 human breast carcinoma cell line; assay: CellTiter 96 Aqueous Non-Radioactive Cell Proliferation Assay (MTS cytotoxicity), MCF7; assay type: cell-based; settings: MCF7 cells, 0.5-3 mM tested, 24 hours
Procedure: as §1

[10] = system: Molt-4, SK-28, LNCaP and MCF7 cells; assay: CellTiter 96 cytotoxicity across the four transformed cell lines; assay type: cell-based, human; settings: 0.5-3 mM, 24 hours
Procedure: as §1
Results are presented as means ± standard deviation.

[11] = system: LNCaP cells; assay: Trypan blue exclusion (cell death versus suppression of proliferation), LNCaP; assay type: cell-based, human
Excerpt: as §2

[12] = system: LNCaP androgen-responsive human prostate adenocarcinoma cell line; assay: CellTiter 96 Aqueous Non-Radioactive Cell Proliferation Assay (MTS cytotoxicity), LNCaP; assay type: cell-based; settings: LNCaP cells, 0.5-3 mM tested, 24 hours
Procedure: as §1

[13] = system: EL-4 lymphoma cells; assay: EL-4 lymphoma model in mice, survival; assay type: in vivo, mice (strain C57BL)
Procedure: Syngeneic lymphoma cells were injected into a test group and a control group of mice (strain C57BL). The injections were administered either sub-cutaneously, or intra-peritoneally. Methyl jasmonate was administered orally, by injection directly into the resultant tumor or into the peritoneum, and the effect on tumor progression and on the rate of survival, were analyzed.
400,000 EL-4 lymphoma cells were injected intra-peritoneally into 20 test mice, or 19 control mice, of the C57BL strain.
Preliminary experiments had shown that methyl jasmonate at a dosage of 236-472 mg/kg. body weight was appropriate for prevention of tumoral growth. Therefore, methyl jasmonate was dissolved in a lipid carrier (0.4% Lipofundin, manufactured by B. Brown, Melsunger, Germany) and administered orally at a dosage of 236 mg/kg body weight. Administration was daily, via the drinking water, beginning with the day of injection of the lymphoma cells.
19 control mice received the lipid carrier only (0.4% Lipofundin), with no methyl jasmonate dissolved within.
The survival time of each group of mice was measured (in days), and analyzed.
Each of these tests weighs numerically the importance of a death within one of the two groups of mice, on a given day, compared to the number of surviving mice in the whole.

| SMILES | Caspase-3 activity [1] | Level of Caspase-3 ([1]; incubation for 2 hours) | Concentrations at which cytotoxicity was significant, P<0.05 [2] | Kind of damage (cell death or inhibition of cell proliferation) [3] | Cytotoxicity in normal lymphocytes [4] | Kind of damage (cell death or inhibition of cell proliferation) [5] | Nuclear morphology (apoptotic changes) ([6]; 2 mM for 14 hours) | Kind of damage (cell death or inhibition of cell proliferation) [7] | Cytotoxicity ([8]; 3 mM) | Concentrations at which cytotoxicity was significant, P<0.05 ([8]; 0.5-3 mM tested) | Concentrations at which cytotoxicity was significant, P<0.05 [9] | Order of sensitivity of the cell lines [10] | Kind of damage (cell death or inhibition of cell proliferation) [11] | Concentrations at which cytotoxicity was significant, P<0.05 [12] | Nuclear morphology (apoptotic changes) ([6]; 0.5 mM for 14 hours) | Cytotoxicity ([8]; 0.5 mM) | Concentrations at which cytotoxicity was significant, P<0.01 ([8]; 0.5-3 mM tested) | Plateau of survival (cumulative percentage of survival) ([13]; C57BL mice, EL-4 cells i.p., 236 mg/kg orally daily via drinking water, reached on the 33rd day, control 20%, p=0.01492 Log-Rank, p=0.00953 Cox-Mantel) | Dosage appropriate for prevention of tumoral growth ([13]; preliminary experiments in mice) | Concentrations at which cytotoxicity was significant, P<0.01 [9] |
| --- | --- | --- | --- | --- | --- | --- | --- | --- | --- | --- | --- | --- | --- | --- | --- | --- | --- | --- | --- | --- |
| CC/C=C\C[C@H]1C(=O)CC[C@@H]1CC(=O)O [JA, Jasmonic acid] | increased Caspase-3 activity significantly | didn't induce an elevation | ≥ 2000 µM | inhibition of cell proliferation | do not harm normal cells | inhibition of cell proliferation | induced condensation and fragmentation of chromatin | cell death | 90% | ≥ 1000 µM | 3000 µM | Molt-4>SK-28>LNCaP>MCF7 | inhibition of cell proliferation | ≥ 2000 µM |  |  |  |  |  |  |
| O=C([O-])c1ccccc1O.[Na+] [SA, Sodium salicylate, reference compound] |  |  |  | inhibition of cell proliferation |  | inhibition of cell proliferation |  | inhibition of cell proliferation |  | all concentrations |  |  | inhibition of cell proliferation |  |  |  |  |  |  |  |
| CC/C=C\CC1C(=O)CCC1CC(=O)OC (stereo not shown) [MJ, methyl jasmonate] | increased Caspase-3 activity significantly |  | ≥ 2000 µM | death | do not harm normal cells | death |  | death |  |  |  | Molt-4>LNCaP>SK28>MCF7 | death | ≥ 2000 µM | completely destroyed nuclear morphology in almost all cells | 87.52% and 90% | all concentrations | 50% | 236-472 mg/kg. body weight | 3000 µM |
